The source made the active and inactive calls. The rule behind the calls is not given here.
System: CCRIS mutagenicity, Ames/micronucleus/aberration tests
Experiment: CCRIS mutagenicity studies
[1] = Test System: AMES SALMONELLA TYPHIMURIUM, Strain/Indicator: TA98, Metabolic Activation: NONE, Method: STANDARD PLATE
[2] = Test System: AMES SALMONELLA TYPHIMURIUM, Strain/Indicator: TA100, Metabolic Activation: NONE, Method: STANDARD PLATE
[3] = Test System: AMES SALMONELLA TYPHIMURIUM, Strain/Indicator: TA1535, Metabolic Activation: NONE, Method: STANDARD PLATE
[4] = Test System: AMES SALMONELLA TYPHIMURIUM, Strain/Indicator: TA100, Metabolic Activation: NONE, Method: PREINCUBATION
[5] = Test System: Mouse lymphoma, Strain/Indicator: L5178Y (tk+/tk-), Metabolic Activation: None, Method: Suspension/plate
[6] = Test System: Mouse lymphoma, Strain/Indicator: L5178Y (tk+/tk-), Metabolic Activation: Rat, Liver, S-9, Aroclor 1254, Method: Suspension/plate

Structure (SMILES): CCN(CC)CC#CC(C)(C)OC(=O)C(O)(c1ccccc1)C1CCCCC1 (stereo not drawn)
- mutagenic call [1]: inactive; negative
- mutagenic call (Test System: AMES SALMONELLA TYPHIMURIUM, Strain/Indicator: TA98, Metabolic Activation: RAT, LIVER, S-9, PHENOBARBITAL AND 5,6-BENZOFLAVONE, Method: STANDARD PLATE): inactive; negative
- mutagenic call [2]: inactive; negative
- mutagenic call (Test System: AMES SALMONELLA TYPHIMURIUM, Strain/Indicator: TA100, Metabolic Activation: RAT, LIVER, S-9, PHENOBARBITAL AND 5,6-BENZOFLAVONE, Method: STANDARD PLATE): inactive; negative
- mutagenic call [3]: inactive; negative
- mutagenic call (Test System: AMES SALMONELLA TYPHIMURIUM, Strain/Indicator: TA1535, Metabolic Activation: RAT, LIVER, S-9, PHENOBARBITAL AND 5,6-BENZOFLAVONE, Method: STANDARD PLATE): inactive; negative
- mutagenic call (Test System: AMES SALMONELLA TYPHIMURIUM, Strain/Indicator: TA1537, Metabolic Activation: NONE, Method: STANDARD PLATE): inactive; negative
- mutagenic call (Test System: AMES SALMONELLA TYPHIMURIUM, Strain/Indicator: TA1537, Metabolic Activation: RAT, LIVER, S-9, PHENOBARBITAL AND 5,6-BENZOFLAVONE, Method: STANDARD PLATE): inactive; negative
- mutagenic call (Test System: E. COLI, Strain/Indicator: WP2 UVRA, Metabolic Activation: NONE, Method: STANDARD PLATE): inactive; negative
- mutagenic call (Test System: E. COLI, Strain/Indicator: WP2 UVRA, Metabolic Activation: RAT, LIVER, S-9, PHENOBARBITAL AND 5,6-BENZOFLAVONE, Method: STANDARD PLATE): inactive; negative

Structure (SMILES): COc1ccc(CCC2CO2)cc1 (stereo not drawn)
- mutagenic call [4]: active; positive
- mutagenic call [2]: active; positive
- mutagenic call (Test System: AMES SALMONELLA TYPHIMURIUM, Strain/Indicator: TA1535, Metabolic Activation: NONE, Method: PREINCUBATION): active; positive
- mutagenic call [3]: active; positive

Structure (SMILES): CCC(C)Cl (stereo not drawn)
- mutagenic call [5]: inactive; negative
- mutagenic call [6]: inactive; negative

Structure (SMILES): O=C1c2c(ccc3ccccc23)-c2cccc3cccc1c23
- mutagenic call [1]: inactive; negative
- mutagenic call [2]: inactive; negative

Structure (SMILES): O=[N+]([O-])c1cc(O)c2ccc3cccc4ccc1c2c34
- mutagenic call (Test System: AMES SALMONELLA TYPHIMURIUM, Strain/Indicator: TA98(1,8-DNP6), Metabolic Activation: NONE, Method: PREINCUBATION): active; positive
- mutagenic call (Test System: AMES SALMONELLA TYPHIMURIUM, Strain/Indicator: TA98(1,8-DNP6), Metabolic Activation: NONE, Method: STANDARD PLATE): active; positive
- mutagenic call (Test System: AMES SALMONELLA TYPHIMURIUM, Strain/Indicator: TA98(1,8-DNP6), Metabolic Activation: RAT, LIVER, S-9, AROCLOR 1254, Method: STANDARD PLATE): active; positive
- mutagenic call (Test System: AMES SALMONELLA TYPHIMURIUM, Strain/Indicator: TA98(NR), Metabolic Activation: NONE, Method: PREINCUBATION): active; positive
- mutagenic call (Test System: AMES SALMONELLA TYPHIMURIUM, Strain/Indicator: TA98(NR), Metabolic Activation: NONE, Method: STANDARD PLATE): active; positive
- mutagenic call (Test System: AMES SALMONELLA TYPHIMURIUM, Strain/Indicator: TA98(NR), Metabolic Activation: RAT, LIVER, S-9, AROCLOR 1254, Method: STANDARD PLATE): active; positive
- mutagenic call (Test System: AMES SALMONELLA TYPHIMURIUM, Strain/Indicator: TA98, Metabolic Activation: NONE, Method: PREINCUBATION): active; positive
- mutagenic call (Test System: AMES SALMONELLA TYPHIMURIUM, Strain/Indicator: TA98, Metabolic Activation: RAT, LIVER, S-9, AROCLOR 1254, Method: PREINCUBATION): active; positive
- mutagenic call (Test System: AMES SALMONELLA TYPHIMURIUM, Strain/Indicator: TA98, Metabolic Activation: RAT, LIVER, S-9, AROCLOR 1254, Method: STANDARD PLATE): active; positive
- mutagenic call [4]: active; positive
- mutagenic call (Test System: AMES SALMONELLA TYPHIMURIUM, Strain/Indicator: TA100, Metabolic Activation: RAT, LIVER, S-9, AROCLOR 1254, Method: PREINCUBATION): active; positive
- mutagenic call (Test System: AMES SALMONELLA TYPHIMURIUM, Strain/Indicator: YG1024, Metabolic Activation: NONE, Method: STANDARD PLATE): active; positive
- mutagenic call (Test System: AMES SALMONELLA TYPHIMURIUM, Strain/Indicator: YG1024, Metabolic Activation: RAT, LIVER, S-9, AROCLOR 1254, Method: STANDARD PLATE): active; positive
- mutagenic call (Test System: CHINESE HAMSTER OVARY, Strain/Indicator: CHO (HGPRT)/6-THIOGUANINE, Metabolic Activation: NONE, Method: STANDARD PLATE): inactive; negative
- mutagenic call (Test System: CHINESE HAMSTER OVARY, Strain/Indicator: CHO (HGPRT)/6-THIOGUANINE, Metabolic Activation: RAT, LIVER, S-9, AROCLOR 1254, Method: STANDARD PLATE): active; positive
- mutagenic call (Test System: UDS RODENT HEPATOCYTES, Strain/Indicator: THY INCORP, Metabolic Activation: NONE, Method: AUTORADIOGRAPHY): inactive; negative

Structure (SMILES): c1cc[c]([Sb]([c]2ccccc2)[c]2ccccc2)cc1
- mutagenic call (Test System: AMES SALMONELLA TYPHIMURIUM, Strain/Indicator: TA1535, Metabolic Activation: RAT, LIVER, S-9, AROCLOR 1254, Method: STANDARD PLATE): active; positive
- mutagenic call [5]: inactive; negative
- mutagenic call [6]: active; equivocal (previous evaluation positive)

Structure (SMILES): Clc1ccc(-c2nc3ccccc3o2)cc1
- mutagenic call [1]: inactive; negative
- mutagenic call (Test System: AMES SALMONELLA TYPHIMURIUM, Strain/Indicator: TA98, Metabolic Activation: S-9, Method: STANDARD PLATE): inactive; negative

Structure (SMILES): O=[N+]([O-])c1ccc(/C=N/n2cccn2)o1
- mutagenic call (Test System: AMES SALMONELLA TYPHIMURIUM, Strain/Indicator: TA97, Metabolic Activation: NONE, Method: STANDARD PLATE): active; positive
- mutagenic call [1]: active; positive
- mutagenic call [2]: active; positive
- mutagenic call (Test System: AMES SALMONELLA TYPHIMURIUM, Strain/Indicator: TA102, Metabolic Activation: NONE, Method: STANDARD PLATE): active; positive
